Assay results reported in US20060079566A1, “PDK-1/Akt signaling inhibitors” (priority 2003, published 2006).

Key:
NCI-H460 = assay: NCI DTP screen (SRB), Non-Small Cell Lung Cancer; type: cell-based
Experimental: (§1) Screening of compounds 70 and 71 against several cancer cell lines The human tumor cell lines of the cancer screening panel are grown in RPMI 1640 medium containing 5% fetal bovine serum and 2 mM L-glutamine. For a typical screening experiment, cells are inoculated into 96 well microtiter plates in 100 μL at plating densities ranging from 5,000 to 40,000 cells/well depending on the doubling time of individual cell lines. After cell inoculation, the microtiter plates are incubated at 37° C., 5% CO2, 95% air and 100% relative humidity for 24 h prior to addition of experimental drugs.
(§2) After 24 h, two plates of each cell line are fixed in situ with TCA, to represent a measurement of the cell population for each cell line at the time of drug addition (Tz). Experimental drugs are solubilized in dimethyl sulfoxide at 400-fold the desired final maximum test concentration and stored frozen prior to use. At the time of drug addition, an aliquot of frozen concentrate is thawed and diluted to twice the desired final maximum test concentration with complete medium containing 50 μg/ml gentamicin. Additional four, 10-fold or ½ log serial dilutions are made to provide a total of five drug concentrations plus control. Aliquots of 100 μl of these different drug dilutions are added to the appropriate microtiter wells already containing 100 μl of medium, resulting in the required final drug concentrations.
(§3) Following drug addition, the plates are incubated for an additional 48 h at 37° C., 5% CO2, 95% air, and 100% relative humidity. For adherent cells, the assay is terminated by the addition of cold TCA. Cells are fixed in situ by the gentle addition of 50 μl of cold 50% (w/v) TCA (final concentration, 10% TCA) and incubated for 60 minutes at 4° C. The supernatant is discarded, and the plates are washed five times with tap water and air dried. Sulforhodamine B (SRB) solution (100 μl) at 0.4% (w/v) in 1% acetic acid is added to each well, and plates are incubated for 10 minutes at room temperature. After staining, unbound dye is removed by washing five times with 1% acetic acid and the plates are air dried. Bound stain is subsequently solubilized with 10 mM trizma base, and the absorbance is read on an automated plate reader at a wavelength of 515 nm. For suspension cells, the methodology is the same except that the assay is terminated by fixing settled cells at the bottom of the wells by gently adding 50 μl of 80% TCA (final concentration, 16% TCA). Using the seven absorbance measurements [time zero, (Tz), control growth, (C), and test growth in the presence of drug at the five concentration levels (Ti)], the percentage growth is calculated at each of the drug concentrations levels. Percentage growth inhibition is calculated as: [(Ti−Tz)/(C−Tz)]×100 for concentrations for which Ti>/=Tz [(Ti−Tz)/Tz]×100 for concentrations for which Ti<Tz
(§4) Three dose response parameters are calculated for each experimental agent. […] The drug concentration resulting in total growth inhibition (TGI) is calculated from Ti=Tz. […] Values are calculated for each of these three parameters if the level of activity is reached; however, if the effect is not reached or is exceeded, the value for that parameter is expressed as greater or less than the maximum or minimum concentration tested.

PC-3 = assay: NCI DTP screen (SRB), Prostate Cancer; type: cell-based; conditions: Homo sapiens
Experimental: as §1, §2
(§5) Following drug addition, the plates are incubated for an additional 48 h at 37° C., 5% CO2, 95% air, and 100% relative humidity. For adherent cells, the assay is terminated by the addition of cold TCA. Cells are fixed in situ by the gentle addition of 50 μl of cold 50% (w/v) TCA (final concentration, 10% TCA) and incubated for 60 minutes at 4° C. […] Bound stain is subsequently solubilized with 10 mM trizma base, and the absorbance is read on an automated plate reader at a wavelength of 515 nm. […] Using the seven absorbance measurements [time zero, (Tz), control growth, (C), and test growth in the presence of drug at the five concentration levels (Ti)], the percentage growth is calculated at each of the drug concentrations levels. Percentage growth inhibition is calculated as: [(Ti−Tz)/(C−Tz)]×100 for concentrations for which Ti>/=Tz [(Ti−Tz)/Tz]×100 for concentrations for which Ti<Tz
as §4

DU-145 = assay: NCI DTP screen (SRB), Prostate Cancer; type: cell-based; conditions: Homo sapiens
Experimental: as §1, §2, §5, §4

CCRF-CEM = assay: NCI DTP screen (SRB), Leukemia; type: cell-based; conditions: Homo sapiens
Experimental: (§6) After 24 h, two plates of each cell line are fixed in situ with TCA, to represent a measurement of the cell population for each cell line at the time of drug addition (Tz). Experimental drugs are solubilized in dimethyl sulfoxide at 400-fold the desired final maximum test concentration and stored frozen prior to use. […]
(§7) Following drug addition, the plates are incubated for an additional 48 h at 37° C., 5% CO2, 95% air, and 100% relative humidity. […] Bound stain is subsequently solubilized with 10 mM trizma base, and the absorbance is read on an automated plate reader at a wavelength of 515 nm. […] Using the seven absorbance measurements [time zero, (Tz), control growth, (C), and test growth in the presence of drug at the five concentration levels (Ti)], the percentage growth is calculated at each of the drug concentrations levels. Percentage growth inhibition is calculated as: [(Ti−Tz)/(C−Tz)]×100 for concentrations for which Ti>/=Tz [(Ti−Tz)/Tz]×100 for concentrations for which Ti<Tz […]

[1] = tested on: sixty human tumor cell lines; assay: NCI DTP sixty cell line assay, means over the panel; type: cell-based
Experimental: as §1, §2, §3, §4

SF-268 = assay: NCI DTP screen (SRB), CNS Cancer; type: cell-based
Experimental: as §1, §2, §3, §4

SF-295 = assay: NCI DTP screen (SRB), CNS Cancer; type: cell-based; conditions: Homo sapiens
Experimental: as §1, §2, §3, §4

SNB-19 = assay: NCI DTP screen (SRB), CNS Cancer; type: cell-based; conditions: Homo sapiens
Experimental: as §1, §2, §3, §4

immunoprecipitated Akt = assay: Direct inhibition of immunoprecipitated Akt kinase activity; type: biochemical, human
HOP-92 = assay: NCI DTP screen (SRB), Non-Small Cell Lung Cancer; type: cell-based; conditions: Homo sapiens, HOP-92, read-out: LC50
Experimental: as §6, §7

SK-MEL-28 = assay: NCI DTP screen (SRB), Melanoma; type: cell-based; conditions: Homo sapiens
Experimental: as §1, §2, §3, §4

SK-MEL-5 = assay: NCI DTP screen (SRB), Melanoma; type: cell-based; conditions: Homo sapiens
Experimental: as §1, §2, §3, §4

SK-MEL-2 = assay: NCI DTP screen (SRB), Melanoma; type: cell-based
Experimental: as §1, §2, §3, §4

M14 = assay: NCI DTP screen (SRB), Melanoma; type: cell-based; conditions: Homo sapiens
Experimental: as §1, §2, §3, §4

LOX IMVI = assay: NCI DTP screen (SRB), Melanoma; type: cell-based; conditions: Homo sapiens, LOX IMVI
Experimental: as §1, §2, §3, §4

BT-549 = assay: NCI DTP screen (SRB), Breast Cancer; type: cell-based; conditions: Homo sapiens
Experimental: as §6, §7

NCI-H522 = assay: NCI DTP screen (SRB), Non-Small Cell Lung Cancer; type: cell-based, human
Experimental: as §1, with “drugs. […]” for “drugs.”
as §5, with “humidity.” for “humidity. For adherent cells, the assay is terminated by the addition of cold TCA. Cells are fixed in situ by the gentle addition of 50 μl of cold 50% (w/v) TCA (final concentration, 10% TCA) and incubated for 60 minutes at 4° C.”
Three dose response parameters are calculated for each experimental agent. […]

IGROV1 = assay: NCI DTP screen (SRB), Ovarian Cancer; type: cell-based; conditions: Homo sapiens
Experimental: as §1, §2, §3, §4

OVCAR-5 = assay: NCI DTP screen (SRB), Ovarian Cancer; type: cell-based; conditions: Homo sapiens
Experimental: as §1, §2, §3, §4

SK-OV-3 = assay: NCI DTP screen (SRB), Ovarian Cancer; type: cell-based; conditions: Homo sapiens
Experimental: as §1, §2, §3, §4

OVCAR-4 = assay: NCI DTP screen (SRB), Ovarian Cancer; type: cell-based; conditions: Homo sapiens
Experimental: as §1, §2, §3, §4

HT29 = assay: NCI DTP screen (SRB), Colon Cancer; type: cell-based; conditions: Homo sapiens, HT-29
Experimental: as §6, §7

Structure (SMILES): NCC(=O)Nc1ccc(-n2nc(C(F)(F)F)cc2-c2ccc3c(ccc4ccccc43)c2)cc1 [Compound 70, 2-Amino-N-{4-[5-(2-phenanthrenyl)-3-(trifluoromethyl)-1H-pyrazol-1-yl]-phenyl}-acetamide]
- GI50 (NCI-H460; Homo sapiens, NCI-H460): 0.421 µM
- CC50 (NCI-H460; Homo sapiens, NCI-H460, read-out: LC50): > 100 µM
- Percent Growth (NCI-H460; NCI-H460, Log10 Concentration −5.0): −66%
- Mean Optical Densities (NCI-H460; NCI-H460, Log10 Concentration −6.0): 1.830
- GI50 (PC-3; PC-3): 0.705 µM
- CC50 (PC-3; PC-3, read-out: LC50): 6.02 µM
- GI50 (DU-145; DU-145): 1.73 µM
- CC50 (DU-145; DU-145, read-out: LC50): 6.95 µM
- GI50 (CCRF-CEM): 0.387 µM
- CC50 (CCRF-CEM; read-out: LC50): > 100 µM
- range in which cell growth is completely suppressed in a diverse range of tumor cell lines [1]: 3 to 5 µM
- CC50 ([1]; Homo sapiens, 48 h, read-out: mean LC50 among the sixty cell lines): 24 µM
- GI50 ([1]; Homo sapiens, 48 h, two-day treatment, serum-containing medium, read-out: mean GI50 among the sixty cell lines): 1.1 µM
- concentration at which many cell lines respond to the growth inhibitory effect ([1]; two-day exposure, 5% FBS-containing medium): ≥ 0.1 µM
- GI50 (SF-268; Homo sapiens, SF-268): 1.11 µM
- CC50 (SF-268; Homo sapiens, SF-268, read-out: LC50): > 100 µM
- Percent Growth (SF-268; SF-268, Log10 Concentration −4.0): −26%
- GI50 (SF-295; SF-295): 1.28 µM
- CC50 (SF-295; SF-295, read-out: LC50): > 100 µM
- GI50 (SNB-19): 1.18 µM
- direct inhibitory effect on immunoprecipitated Akt kinase activity (immunoprecipitated Akt): no appreciable direct inhibition
- CC50 (HOP-92): 5.87 µM
- GI50 (SK-MEL-28; SK-MEL-28): 1.22 µM
- CC50 (SK-MEL-28; SK-MEL-28, read-out: LC50): 5.69 µM
- GI50 (SK-MEL-5): 1.36 µM
- GI50 (SK-MEL-2; Homo sapiens, SK-MEL-2): 2.33 µM
- CC50 (SK-MEL-2; Homo sapiens, SK-MEL-2, read-out: LC50): > 100 µM
- Percent Growth (SK-MEL-2; SK-MEL-2, Log10 Concentration −5.0): −67%
- GI50 (M14; M14): 2.1 µM
- CC50 (M14; M14, read-out: LC50): > 100 µM
- GI50 (LOX IMVI): 0.836 µM
- GI50 (BT-549; BT-549): 1.25 µM
- CC50 (BT-549; BT-549, read-out: LC50): 6.98 µM
- GI50 (NCI-H522; Homo sapiens): 1.95 µM
- Mean Optical Densities (NCI-H522; Log10 Concentration −4.0): 0.486
- CC50 (IGROV1; IGROV-1, read-out: LC50): > 100 µM
- GI50 (IGROV1; IGROV-1, IGROV1): 1.56 µM
- GI50 (OVCAR-5; OVCAR-5): 1.71 µM
- CC50 (OVCAR-5; OVCAR-5, read-out: LC50): 6.45 µM
- GI50 (SK-OV-3): 1.37 µM
- GI50 (OVCAR-4; OVCAR-4): 1.78 µM
- CC50 (OVCAR-4; OVCAR-4, read-out: LC50): 6.55 µM
- GI50 (HT29): 0.858 µM
